Test results published in publication PMC9834298, “Prolyl-tRNA synthetase as a novel therapeutic target in multiple myeloma” (Blood Cancer Journal, 2023).

Assays:
[1] = target: T1, human prolyl-tRNA synthetase (ProRS domain of GluProRS) (Homo sapiens, UniProt P07814); experiment: TR-FRET ligand displacement with […] ATP; type: binding
T1 construct: gene EPRS1; recombinant human ProRS
T1 sequence (P07814 998-1512): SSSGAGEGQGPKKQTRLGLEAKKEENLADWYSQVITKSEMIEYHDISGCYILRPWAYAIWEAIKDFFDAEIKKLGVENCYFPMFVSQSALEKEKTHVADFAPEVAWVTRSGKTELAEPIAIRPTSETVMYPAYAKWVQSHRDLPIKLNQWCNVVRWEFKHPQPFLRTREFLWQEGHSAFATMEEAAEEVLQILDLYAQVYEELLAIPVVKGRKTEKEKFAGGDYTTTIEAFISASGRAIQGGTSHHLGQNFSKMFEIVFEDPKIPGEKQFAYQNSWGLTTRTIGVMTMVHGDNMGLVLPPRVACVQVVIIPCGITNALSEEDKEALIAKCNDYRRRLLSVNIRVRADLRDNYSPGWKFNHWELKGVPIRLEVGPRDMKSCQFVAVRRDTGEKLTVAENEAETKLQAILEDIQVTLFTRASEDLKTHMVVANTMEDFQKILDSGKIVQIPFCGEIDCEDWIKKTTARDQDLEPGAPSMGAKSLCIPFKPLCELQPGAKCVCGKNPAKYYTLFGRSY

[2] = target: T1, human prolyl-tRNA synthetase (ProRS domain of GluProRS); experiment: TR-FRET ligand displacement with […] proline; crystal structure with proline; type: binding

| Structure (SMILES) | Kd [1] [nM] | Kd [2] [nM] |
| --- | --- | --- |
| O=C(CC1NCCCC1O)Cn1cnc2cc(Br)c(Cl)cc2c1=O (centres unmarked) [HFG, Halofuginone] | 0.19 | – |
| O=C(NC1Cc2ccccc2C1)c1nccnc1NC(=O)N1CCCCC1 [NCP26] | – | 0.35 |
